A short description of series [1]: Turbidimetric aqueous solubility. The series is classed as physicochemical. The following applies: aqueous buffer, kinetic from dmso stock, 0.01 M phosphate buffered saline pH 7.4, 1% DMSO, 37° C. Here is the method:
Test compound (10 mM in DMSO) is serially diluted to give solutions of 0.1, 0.3, 1 and 3 mM in DMSO. Each test compound concentration is then further diluted 1 in 100 in buffer (0.01 M phosphate buffered saline pH 7.4) so that the final DMSO concentration was 1% and the final test compound concentrations were 1, 3, 10, 30 and 100 μM. The experiment was performed at 37° C. and each concentration sample was incubated in 7 replicate wells. The plates were incubated for 2 hr at 37° C. before the absorbance was measured at 620 nm. The solubility of the sample was estimated from the concentration of test compound that produced an increase in absorbance above vehicle control (i.e., 1% DMSO in buffer).

Series [2] relates to SH-SY5Y cells. The experiment in a line: Induction of neurite outgrowth. Type of series: cell-based. The settings on record: 10 nM, 5 days; for fold induction at 0.01 µM: Homo sapiens, 120 h, read-out: Neurite Outgrowth Fold increase. Here is the method:
SY—SY5Y cells were plated at 10,000 cells/well in 12-well plates containing acid-treated/poly-L-lysine-coated coverslips. After 24 hours, each retinoid was added to the medium at a concentration of 10 nM and the plates were incubated for 5 days. After retinoid treatment, SH-SY5Y cells on coverslips were washed twice in PBS, fixed in 4% paraformaldehyde (PFA) for 20 minutes at room temperature, and washed twice with PBS.
For immunocytochemical staining of neurites, cells on coverslips were washed three times in PBS, and incubated in blocking solution (10% donkey serum and 0.1% triton X-100 in PBS) for 1 hour at room temperature. Cells were then labelled by incubation overnight at 4° C. with β-III tubulin primary antibody (Sigma-Aldrich) diluted 1:1000 in blocking buffer. Following incubation overnight, cells were washed three times with PBS containing 0.1% Triton X-100 solution (PBST) before incubation with anti-mouse monoclonal secondary antibody (1:300 in PBST; Jackson Immunoresearch) for 2 hours at room temperature. Finally, after three washes in PBST and a final wash in PBS, the coverslips were mounted on slides and stored at 4° C.
ImageJ software with the NeuronJ plugin was used to quantify neurite outgrowth on stained cells. For each experiment, 10 different randomly selected images were taken from each cover slip using a Nikon Eclipse E400 fluorescence microscope. Each image was converted into an 8-bit image (necessary for the NeuronJ plugin) and optimised with the brightness and contrast tool in GIMP (GNU Image Manipulation Program). For each image, individual traces were drawn for each clearly-identifiable neurite using the tracing tool in the NeuronJ plugin. Neurite length was measured in pixels and transformed into the corresponding length in μm depending on the magnification used. The average neurite length for each image was calculated by dividing total neurite length by the total number of neurites per image. Ten images per cover slip were measured and the mean calculated for the coverslip overall. Coverslips were in triplicate for each retinoid and concentration.

For series [3], the system named is retinoic acid response element (RARE). The experiment in a line: X-Gal RA based reporter assay (genomic activity). The series is classed as cell-based. The following applies: for Genomic Activity (X-Gal RA Based Reporter Assay) Efficacy (Emax) / pEC50: Sil-15 reporter cells, overnight incubation; for pEC50: read-out: Genomic Activity (X-Gal RA Based Reporter Assay) Potency (EC50); for Genomic activity and potency compared to retinoic acid (ATRA): X-Gal assay, versus ATRA. Here is the method: The genomic activity of synthetic retinoids was evaluated by determining their efficiency of inducing transcription using the X-Gal Assay. The X-Gal Assay utilizes Sil-15 reporter cells in which the transcription of the LacZ gene is under control of a promoter linked to a retinoic acid response element (RARE). After treatment of the reporter cells with retinoids, the ability of the compounds to induce transcription can be attained by monitoring and quantifying the activity of β-galactosidase produced by the reporter cells.
Sil-15 cells were plated at 100,000 cells per well in 96-well plates coated in 0.1% gelatin. The following day, serial dilutions of retinoid ligands, prepared in Dulbecco's Modified Eagle's Medium (DMEM) containing 10% foetal calf serum (FCS) were added at concentrations from 10^−6 M to 10^−14 M and the plates were incubated overnight. All concentrations for the ATRA standard curve and the other retinoid ligands were tested in triplicate.
The next day, the assay plates were washed twice with phosphate buffered saline (PBS), fixed with 100 μl per well of 1% glutaraldehyde and 1 mM MgCl2 in PBS for 15 minutes and washed twice with PBS. β-galactosidase activity was detected by the addition of 100 μl of freshly-prepared 0.2% X-Gal in 1 mM MgCl2, 3.3 mM potassium ferricyanide and 3.3 mM potassium ferrocyanide in PBS per well. Plates were incubated for 6 hours at 37° C. in 5% CO2 and colour change was detected by reading the plates at 650 nm on an Emax Precision Microplate Reader (Molecular Devices).
On the technique in general: In a reporter assay the amount or activity of a reporter protein is the signal.

Series [4] concerns ERK1/2. Briefly: ERK1/2 phosphorylation assay, AlphaLISA SureFire Ultra (non-genomic activity). The series is classed as cell-based. Also on record: Non-genomic activity (ERK½ Phosphorylation Assay) Efficacy (Emax): unit not given here. The settings on record: SH-SY5Y cells; for pEC50: Homo sapiens, 0.5 h, read-out: Non-genomic activity (ERK½ Phosphorylation Assay) Potency (EC50); for pEC50 / Non-genomic activity (ERK½ Phosphorylation Assay) Efficacy (Emax): serum-free, 30 minutes stimulation; for Erk 1/2 phosphorylation potency/efficacy compared to retinoic acid: versus retinoic acid. The procedure:
The non-genomic activity of synthetic retinoids was evaluated by measuring their ability to induce phosphorylation of ERK1/2 using the AlphaLISA® SureFire® Ultra ERK1/2 kit.
In this assay, SH-SY5Y cells (100,000 cells/well) were plated in 96-well plates and serum-starved in DMEM for 24 hours. Retinoids were tested at concentrations from 10−5 M to 10−11 M and at a final concentration of 0.1% DMSO in the medium. The assay was carried out on the SH-SY5Y cells in serum-free DMEM, cells were stimulated by retinoid for 30 minutes at 37° C.
At the end of the assay, the medium was removed, and cells were lysed in 50 μl of freshly prepared 1× lysis buffer (supplied in the kit). The 96-well plate was agitated on an orbital shaker (SO1, Stuart Scientific) at approximately 350 rpm for 10 minutes at room temperature.
In the meantime, the activation buffer was diluted 25-fold in the reaction buffers. Under green light in a dark room, the acceptor beads were diluted 50-fold in the freshly prepared reaction mix while the donor beads were diluted 50-fold in dilution buffer to obtain two final reaction mixtures.
10 μl of cell lysate was then transferred per well into 384-well white Proxiplates plates (PerkinElmer) and 5 μl of each prepared acceptor and donor reaction mixture was added under green light in a dark room. Plates were wrapped with aluminium foil and incubated at room temperature for at least 3 hours. Readings were taken using an Envision system (PerkinElmer Life Sciences) using the AlphaScreen® settings.
Background: Alpha assays give light when donor and acceptor beads are brought close together.

pEC50: −log10 of the molar value. In brackets after ≈: the same amount, converted by molar mass.

`CC1(C)CCC(C)(C)c2cc(C#Cc3ccc(C(=O)O)cc3F)ccc21` [DC526, 3-Fluoro-4-[2-(5,5,8,8-tetramethyl-5,6,7,8-tetrahydronaphthalen-2-yl)ethynyl]benzoic acid] had a solubility at 2 h in series [1] of 20 µM (≈ 7.01 µg/mL). For the same molecule, in series [2], the “Average neurite length compared to cells treated with ATRA” value is “significantly larger average neurite length” and the fold induction at 0.01 µM stood at 2.1. In series [3], the “Genomic Activity (X-Gal RA Based Reporter Assay) Efficacy (Emax)” value was 149.1; the pEC50 is 10.24; the “Genomic activity and potency compared to retinoic acid (ATRA)” value was “increased genomic activity and potency”. Besides, in series [4], the pEC50 is 7.58; the “Non-genomic activity (ERK½ Phosphorylation Assay) Efficacy (Emax)” value (shortened to “Non-genomic activity”) was determined as 50.22; the “Erk 1/2 phosphorylation potency/efficacy compared to retinoic acid” value was “higher potency and efficacy”.

As to `CC1(C)CCC(C)(C)c2cc(C#Cc3ccc(C(=O)O)nc3)ccc21` [DC528, 5-[2-(5,5,8,8-tetramethyl-5,6,7,8-tetrahydronaphthalen-2-yl)ethynyl]pyridine-2-carboxylic acid], the solubility at 2 h in series [1] turned out to be 20 µM (≈ 6.67 µg/mL). In addition, in series [2], the “Average neurite length compared to cells treated with ATRA” value is reported as “significantly larger average neurite length” and the fold induction at 0.01 µM was 2.2. Moreover, in series [3], the “Genomic Activity (X-Gal RA Based Reporter Assay) Efficacy (Emax)” value came to 206.5; the negative-log EC50 (pEC50) is 9.84; the “Genomic activity and potency compared to retinoic acid (ATRA)” value is “increased genomic activity and potency”. In series [4], the pEC50 is 7.85; the “Non-genomic activity” value is given as 69.15; the “Erk 1/2 phosphorylation potency/efficacy compared to retinoic acid” value is “higher potency and efficacy”.

Consider `CC1(C)CCC(C)(C)c2nc(C#Cc3ccc(C(=O)O)cc3)cnc21` [DC645, 4-[2-(5,5,8,8-Tetramethyl-5,6,7,8-tetrahydroquinoxalin-2-yl)ethynyl]benzoic acid], for which the solubility at 2 h in series [1] was greater than 100 µM. In addition, in series [2], the “Average neurite length compared to cells treated with ATRA” value is recorded as “significantly larger average neurite length” and the fold induction at 0.01 µM was 2.3. Moreover, in series [3], the “Genomic Activity (X-Gal RA Based Reporter Assay) Efficacy (Emax)” value is 185.9; the pEC50 was 10.16; the “Genomic activity and potency compared to retinoic acid (ATRA)” value is “increased genomic activity and potency”. In series [4], the negative logarithm of the EC50 (pEC50) is 8.07; the “Non-genomic activity” value worked out at 91.57; the “Erk 1/2 phosphorylation potency/efficacy compared to retinoic acid” value was “higher potency and efficacy”.

As usually defined, the solubility is how much of the substance goes into solution per volume. As a reminder, the pEC50 is −log10 of the EC50, conventionally taken in molar units.

The values are drawn from patent US12344587B2, “Synthetic retinoids for use in RAR activation” (UNIVERSITY OF DURHAM, priority 2019, dated 2025).
